Reference: patent publication US20110294794A1, “TREATMENT OF PROTEINOPATHIES USING A FARNESYL TRANSFERASE INHIBITOR” (Link Medicine Corporation, priority 2008, published 2011)
Entries after “also recorded” stand apart in the source; their conditions may differ.

What was measured:
α-synuclein = assay: Masliah D-line human WT α-synuclein transgenic mouse, α-synuclein immunoreactivity / ELISA; format: in vivo; details: for α-synuclein deposition in cortex and hippocampus: three months (FIG. 9a); for number of α-synuclein positive neurons in the brain: higher-dose trial (FIG. 2A)
Experimental: Animals and treatments: Male and female human WT alpha-synuclein over-expressing transgenic mice^32 at 6 months of age were given vehicle (10% beta-cyclodextrin) or LNK-754-TS (0.09, 0.9 and 9 mg/kg) per oral gavage twice daily for 3 months or animals at 7 months of age were given vehicle (2.5% beta-cyclodextrin) or LNK-754-TS (2 mg/kg) once every three days for 3 months. Male and female TAU transgenic mice expressing TAU441 bearing the missense mutations V337M^50 and R406W under the control of the murine Thy-1 promoter with a CB6xC57BL/6 background were 5 months old at the time when the oral treatment for three months with LNK-754-TS (0.9 and 0.09 mg/kg) as well as vehicle (2.5% beta-cyclodextrin) was started. Female human APP/PS1 (APP (London V7171)/PS1(A246E)) over-expressing transgenic mice were treated with LNK-754-TS (0.9 mg/kg) or vehicle (2.5% beta-cyclodextrin) for 2 months or 12 days.
Immunohistochemistry and quantification of stained cells: For evaluation of α-synuclein immunoreactivity (IR), 5 sagittal cryo-cut sections (10 μm slice thickness) from five different layers were used for counting of IR cells in the cortex and hippocampus. Brain sections were stained with a monoclonal human α-synuclein specific antibody (Alexis®; Cat# 804-258-L001; dilution 1:5), followed by a secondary Ab Cy 2-Goat Anti-Rat (Jackson ImmunoResearch®; dilution 1:200). IR positive cells were quantified using specialized image analysis software (Image Pro Plus, version 4.5.1.29). For Tau transgenic animals, 5 μm thick coronal paraffin sections were stained with the monoclonal mouse anti-human TAU-antibodies (AT180—1:100; HT—1:500) and visualized using an anti-mouse Cy3 secondary antibody (1:500, Jackson laboratories®). Images were evaluated with ImageProPlus (version 6.2) image analysis software. For APP/PS1 transgenic animals sagittal hemisections (40 μm) were collected and processed for Aβ immunohistochemistry using an 6E10 antibody, Thioflavin-S staining Primary antibodies were detected by the ABC method.
ELISA quantification of α-Synuclein in the α-Synuclein transgenic animals: Brain homogenate was centrifuged and the supernatant saved as fraction F1. The pellet was washed then resuspended and saved as fraction F2. Plates (Nunc, 464718) were coated with SYN-1 (1:1000, BD Transduction Labs, 610787). Monomeric recombinant α-synuclein was included as an internal standard. Biotinylated antibody FL-140 (1:300, Santa Cruz Biotechnology, sc-10717-B) and ExtrAvidin-Alkaline phosphatase (3:5000, Sigma, E2636) was added followed by pNPP substrate solution (Sigma, N1891). Raw absorbance (405 nm) was then normalized to the total protein concentration of each sample. In the APP/PS1 transgenic animal, brains were homogenized and the supernatant, Faction 1, was separated from the pellet. The pellets were further processed with addition of NP40 and Triton X-100. The supernatant was separated from the pellet as the insoluble membrane, Fraction 2, and was dissolved in 8M Guanidine. To quantify the amount of human Aβ-40 and Aβ-42, ELISA kits were used (The Genetics Company, Zurich, Switzerland).
In FIG. 2 is shown efficacy data for LNK-754-TS in the Masliah D-line transgenic α-synuclein mouse (an accepted model of synucleinopathies). Two trials are shown, the first (FIG. 2A) at higher doses of LNK-754-TS: 45 mg/kg and 9 mg/kg. […] The second trial (FIG. 2B) explores the low dose range for efficacy in the α-synuclein models. […]
After dosing with LNK-754-TS for three months (twice daily at 0.09 mg/kg or 0.9 mg/kg), α-synuclein accumulation in the brain was analyzed by immunohistochemical (human specific α-synuclein immunoreactivity) and biochemical (α-synuclein ELISA) means. […]

[1] = Pharmacokinetics of LNK-754-TS in mice, oral administration; format: in vivo, mouse; details: 9 mg/kg, 20% beta-cyclodextrin
Text: In the experimental data represented in Table 2A, a different method of drug delivery is used (oral) than in the experiment represented in FIG. 3. The best way to compare the relative coverage of the two delivery methods (oral and continuous infusion) is by comparing area-under-the-curve (AUC) values. We can compare the calculated AUC values for the continuous infusion oncology study presented in FIG. 3 and the AUC values associated with the synuclein model doses in the table. […] The AUCs of orally dosed LNK-754-TS at 0.9 mg/kg and at 0.09 mg/kg QD are 34.6 and […], respectively.
The pharmacokinetic profiles of LNK-754-TS and Zarnestra® were analyzed using methods known in the art. The results are shown in FIGS. 13-14 and the tables below.

[2] = test system: 3T3 H-ras (61L) xenograft; details: BID for 10 days; cited from earlier work
[3] = test system: 3T3 H-ras (61L) xenograft tumor; details: continuous infusion, cited from earlier work
[4] = three-month dosing trial (FIG. 9c)
[5] = twice daily at 0.09 mg/kg or 0.9 mg/kg, three months

## C#Cc1cccc(-c2cc(=O)n(C)c3ccc([C@](O)(c4ccc(Cl)cc4)c4cncn4C)cc23)c1 [LNK-754-TS, (R)-6-[(4-chlorophenyl)-hydroxyl-(1-methyl-1-H-imidazol-5-yl)-methyl]-4-(3-ethynylphenyl)-1-methyl-2-(1H)-quinonlinone (2S,3S)-dihydroxybutanedioate]
α-synuclein; 0.09 mg/kg twice every 24 hr
  α-synuclein deposition in cortex and hippocampus: halts deposition
α-synuclein; 0.9 mg/kg twice every 24 hr
  α-synuclein deposition in cortex and hippocampus: halts deposition
α-synuclein; 2 mg/kg once every 72 hr, three months (FIG. 9b)
  cortical α-synuclein immunoreactivity vs. baseline and vehicle: significantly lower; also recorded: significantly reduces
α-synuclein; 9 mg/kg PO BID 3 months
  number of α-synuclein positive neurons in the brain: significant reduction
α-synuclein; 9 mg/kg group, PO BID 3 months, lower-dose trial (FIG. 2B)
  number of α-synuclein IR cells in the hippocampus vs. saline: significance level was not reached
α-synuclein; 45 mg/kg PO BID 3 months
  number of α-synuclein positive neurons in the brain: not significantly effective
α-synuclein; PO BID 3 months
  efficacious dose in the α-synuclein transgenic mouse: ≤ 9 mg/kg
α-synuclein; all applied dosages except 9 mg/kg, PO BID 3 months (FIG. 2B)
  number of α-synuclein IR cells in the hippocampus vs. saline: significant decrease
α-synuclein; [4]
  effect on neuronal architecture (NeuN): lack of effect
  reduction of α-synuclein immunoreactivity, representative hippocampal slices: ca. 50%
α-synuclein; [5]
  astrocytosis: GFAP staining: unchanged
  drug-dependent toxicity: None of the treated animals showed any evidence
  neuronal loss: NeuN staining and brain volume: unchanged
  synaptic damage: synaptophysin staining: unchanged
  α-synuclein accumulation in the brain (immunoreactivity and ELISA): clearly reduced
[1]; BID day 1
  Cmax: 1385 ng/mL
[1]; BID day 5
  Cmax: 1485 ng/mL
[2]
  dose required for suppression of tumor growth: at least 25 mg per kg
[3]; 7 day treatment
  continuous serum level at which significant inhibition of tumor growth was seen: above 100 ng/mL
[3]; tumor tissue
  inhibition of Ras farnesylation at which significant inhibition of tumor growth was seen: ≥ 50%
